Test results from patent US20240182453A1, “NOVEL SUBSTITUTED PYRAZINE-CARBOXAMIDE DERIVATIVES” (Boehringer Ingelheim International GmbH, priority 2022, published 2024).
pIC50: −log10 of the molar value.

What follows are molecules tested against human metabotropic Glutamate 4 receptor (mGluR4) (Homo sapiens (Human), UniProt Q14833) (assay: Assay A: in vitro testing of mGluR4 potency (glutamate-induced cAMP lowering, HTRF cAMP)). Conditions: HEK293 cells overexpressing human mGluR4; 10 uM L-glutamic acid, 1 uM forskolin; compounds of the present invention.
Format: cell-based
How it was run: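 HEK293 cells overexpressing human mGluR4 treated 30 min at room temperature with compound plus 10 uM L-glutamate, 1 uM forskolin, 0.5 mM IBMX, 0.1% BSA, 1% DMSO. cAMP read by HTRF (665/615 nm ratio), normalized to glutamate (100%) and no-glutamate (0%) controls as percent of control.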

human metabotropic Glutamate 4 receptor (mGluR4), sequence (Q14833 33-912): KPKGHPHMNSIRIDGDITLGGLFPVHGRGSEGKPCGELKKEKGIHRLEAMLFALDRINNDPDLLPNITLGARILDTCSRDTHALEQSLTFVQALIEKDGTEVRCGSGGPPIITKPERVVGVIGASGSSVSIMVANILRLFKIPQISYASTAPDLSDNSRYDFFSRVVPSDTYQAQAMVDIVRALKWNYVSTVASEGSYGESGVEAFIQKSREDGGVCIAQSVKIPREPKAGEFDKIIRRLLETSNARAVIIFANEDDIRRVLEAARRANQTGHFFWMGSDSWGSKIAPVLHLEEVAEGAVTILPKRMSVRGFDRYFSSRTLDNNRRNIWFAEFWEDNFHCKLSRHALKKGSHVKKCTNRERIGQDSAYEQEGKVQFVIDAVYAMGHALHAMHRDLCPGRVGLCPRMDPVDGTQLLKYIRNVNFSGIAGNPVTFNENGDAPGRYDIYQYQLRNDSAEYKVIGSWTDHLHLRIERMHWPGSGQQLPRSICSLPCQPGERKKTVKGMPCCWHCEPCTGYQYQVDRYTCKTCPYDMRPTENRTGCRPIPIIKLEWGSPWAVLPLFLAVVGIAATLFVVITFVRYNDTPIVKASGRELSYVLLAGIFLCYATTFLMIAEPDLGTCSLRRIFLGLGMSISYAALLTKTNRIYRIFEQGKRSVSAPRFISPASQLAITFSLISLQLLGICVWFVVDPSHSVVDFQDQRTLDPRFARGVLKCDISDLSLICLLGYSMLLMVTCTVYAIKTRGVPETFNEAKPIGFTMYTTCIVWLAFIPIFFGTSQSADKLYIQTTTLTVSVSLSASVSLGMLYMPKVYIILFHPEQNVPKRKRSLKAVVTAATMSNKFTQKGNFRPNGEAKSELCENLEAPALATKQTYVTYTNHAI

| Compound | pIC50 |
| --- | --- |
| COCCn1c([C@@H](NC(=O)c2cnc(C(F)F)cn2)[C@H]2CCCO2)nc2cc(OC(F)(F)F)ccc21 [Example 53, 5-(difluoromethyl)-N-[(R)-[1-(2-methoxyethyl)-5-(trifluoromethoxy)-1H-1,3-benzodiazol-2-yl][(2R)-oxolaN-2-yl]methyl]pyrazine-2-carboxamide] | 8.22 |
| COCCn1c([C@@H](NC(=O)c2cnc(C)cn2)C2CC2)nc2c(C)c(Br)ccc21 [Example 54, N-[(S)-[5-bromo-1-(2-methoxyethyl)-4-methyl-1H-1,3-benzodiazol-2-yl](cyclopropyl)methyl]-5-methylpyrazine-2-carboxamide] | 9.00 |
| Cn1c([C@@H](NC(=O)c2cnc(C(F)F)cn2)C2CC2)nc2cc(Cl)ccc21 [Example 55, N-[(S)-(5-chloro-1-methyl-1H-1,3-benzodiazol-2-yl)(cyclopropyl)methyl]-5-(difluoromethyl)pyrazine-2-carboxamide] | 8.15 |
| CCn1c([C@@H](NC(=O)c2cnc(C(F)F)cn2)C(C)(C)O)nc2cc(F)c(F)cc21 [Example 57, 5-(difluoromethyl)-N-[(1R)-1-(1-ethyl-5,6-difluoro-1H-1,3-benzodiazol-2-y1)-2-hydroxy-2-methylpropyl]pyrazine-2-carboxamide] | 7.72 |
| COCCn1c([C@@H](NC(=O)c2cnc(C)cn2)[C@@H]2CCCO2)nc2cc(OC(F)(F)F)ccc21 [Example 58, N-[(R)-[1-(2-methoxyethyl)-5-(trifluoromethoxy)-1H-1,3-benzodiazol-2-yl][(2S)-oxolan-2-yl]methyl]-5-methylpyrazine-2-carboxamide] | 8.40 |
| Cc1cnc(C(=O)N[C@H](c2nc3cc(C(F)(F)F)ccc3n2C)[C@@H](C)OC(F)F)cn1 [Example 61, N-[(1R,2R)-2-(difluoromethoxy)-1-[1-methyl-5-(trifluoromethyl)-1H-1,3-benzodiazol-2-yl]propyl]-5-methylpyrazine-2-carboxamide] | 8.10 |
| COCCn1c([C@@H](NC(=O)c2cnc(C)cn2)[C@H]2CCOC2)nc2cc(OC(F)(F)F)ccc21 [Example 62, N-[(S)-[1-(2-methoxyethyl)-5-(trifluoromethoxy)-1H-1,3-benzodiazol-2-yl][(3R)-oxolan-3-yl]methyl]-5-methylpyrazine-2-carboxamide] | 8.05 |
| Cc1cnc(C(=O)N[C@H](c2nc3ccc(C(F)(F)F)cc3n2C)C2CC2)cn1 [Example 63, N-[(S)-cyclopropyl[1-methyl-6-(trifluoromethyl)-1H-1,3-benzodiazol-2-yl]methyl]-5-methylpyrazine-2-carboxamide] | 7.85 |
| Cc1cnc(C(=O)N[C@H](c2nc3cc(F)ccc3n2C)C(C)C)cn1 [Example 64, N-[(1S)-1-(5-fluoro-1-methyl-1H-1,3-benzodiazol-2-yl)-2-methylpropyl]-5-methylpyrazine-2-carboxamide] | 7.72 |
| CCn1c([C@@H](NC(=O)c2cnc(C(F)F)cn2)C(C)(C)O)nc2cc(F)ccc21 [Example 65, 5-(difluoromethyl)-N-[(1R)-1-(1-ethyl-5-fluoro-1H-1,3-benzodiazol-2-yl)-2-hydroxy-2-methylpropyl]pyrazine-2-carboxamide] | 7.80 |
| COCCn1c([C@@H](NC(=O)c2cnc(C)cn2)C2CC2)nc2cc(OC(F)F)c(F)cc21 [Example 67, N-[(S)-cyclopropyl[5-(difluoromethoxy)-6-fluoro-1-(2-methoxyethyl)-1H-1,3-benzodiazol-2-yl]methyl]-5-methylpyrazine-2-carboxamide] | 8.00 |
| Cc1cnc(C(=O)N[C@H](c2nc3cc(Cl)ccc3n2C)[C@@H]2CCCO2)cn1 [Example 68, N-[(R)-(5-chloro-1-methyl-1H-1,3-benzodiazol-2-yl)[(2S)-oxolan-2-yl]methyl]-5-methylpyrazine-2-carboxamide] | 7.72 |
| Cc1cnc(C(=O)N[C@H](c2nc3cc(F)ccc3n2CC(F)F)[C@@H](C)OC(F)F)cn1 [Example 69, N-[(1R,2R)-1-[1-(2,2-difluoroethyl)-5-fluoro-1H-1,3-benzodiazol-2-y1]-2-(difluoromethoxy)propyl]-5-methylpyrazine-2-carboxamide] | 7.74 |
| COCCn1c(C(NC(=O)c2cnc(C)cn2)C2CCCO2)nc2cc(C(F)(F)F)ccc21 (centres unmarked) [Example 71-3, N-{[1-(2-methoxyethyl)-5-(trifluoromethyl)-1H-1,3-benzodiazol-2-yl](oxolan-2-yl)methyl}-5-methylpyrazine-2-carboxamide] | 7.21 |
| Cc1cnc(C(=O)N[C@H](c2nc3cc(Cl)ccc3n2C)C(C)C)cn1 [Example 72, N-[(1S)-1-(5-chloro-1-methyl-1H-1,3-benzodiazol-2-yl)-2-methylpropyl]-5-methylpyrazine-2-carboxamide] | 8.10 |
| Cc1cnc(C(=O)N[C@H](c2nc3cc(F)ccc3n2C2CC2)C2CC2)cn1 [Example 73, N-[(S)-cyclopropyl (1-cyclopropyl-5-fluoro-1H-1,3-benzodiazol-2-yl)methyl]-5-methylpyrazine-2-carboxamide] | 7.74 |
| Cc1cnc(C(=O)N[C@H](c2nc3cc(OC(F)(F)F)ccc3n2C)C2CC2)cn1 [Example 74, N-[(S)-cyclopropyl[1-methyl-5-(trifluoromethoxy)-1H-1,3-benzodiazol-2-yl]methyl]-5-methylpyrazine-2-carboxamide] | 8.22 |
| Cc1cnc(C(=O)N[C@H](c2nc3cc(Cl)ccc3n2C)[C@@H]2CC2(F)F)cn1 [Example 76, N-[(S)-(5-chloro-1-methyl-1H-1,3-benzodiazol-2-yl)[(1S)-2,2-difluorocyclopropyl]methyl]-5-methylpyrazine-2-carboxamide] | 7.92 |

Next, values leading:

| pIC50 | Compound |
| --- | --- |
| 7.92 | COCCn1c([C@@H](NC(=O)c2cnc(C(F)F)cn2)[C@H]2CCOC2)nc2cc(OC(F)(F)F)ccc21 [Example 77, 5-(difluoromethyl)-N-[(S)-[1-(2-methoxyethyl)-5-(trifluoromethoxy)-1H-1,3-benzodiazol-2-yl][(3R)-oxolan-3-yl]methyl]pyrazine-2-carboxamide] |
| 7.89 | Cc1cnc(C(=O)N[C@H](c2nc3cc(OC(F)(F)F)ccc3n2C)[C@@H]2CCCOC2)cn1 [Example 78, 5-methyl-N-[(S)-[1-methyl-5-(trifluoromethoxy)-1H-1,3-benzodiazol-2-yl][(3S)-oxan-3-yl]methyl]pyrazine-2-carboxamide] |
| 7.72 | COCCn1c([C@@H](NC(=O)c2cnc(C)cn2)[C@@H](C)OC(F)F)nc2cc(OC(F)F)ccc21 [Example 79, N-[(1R,2R)-2-(difluoromethoxy)-1-[5-(difluoromethoxy)-1-(2-methoxyethyl)-1H-1,3-benzodiazol-2-yl]propyl]-5-methylpyrazine-2-carboxamide] |
| 7.54 | CO[C@H](C)[C@H](NC(=O)c1cnc(C(F)F)cn1)c1nc2cc(OC(F)F)ccc2n1C [Example 80, N-[(1R,2R)-1-[5-(difluoromethoxy)-1-methyl-1H-1,3-benzodiazol-2-yl]-2-methoxypropyl]-5-(difluoromethyl)pyrazine-2-carboxamide] |
| 7.85 | CCn1c([C@@H](NC(=O)c2cnc(C)cn2)C(C)(C)O)nc2cc(Cl)ccc21 [Example 81, N-[(1R)-1-(5-chloro-1-ethyl-1H-1,3-benzodiazol-2-yl)-2-hydroxy-2-methylpropyl]-5-methylpyrazine-2-carboxamide] |
| 7.89 | Cc1cnc(C(=O)N[C@H](c2nc3cc(C(F)(F)F)ccc3n2C)[C@H]2CCCOC2)cn1 [Example 82, 5-methyl-N-[(S)-[1-methyl-5-(trifluoromethyl)-1H-1,3-benzodiazol-2-yl][(3R)-oxan-3-yl]methyl]pyrazine-2-carboxamide] |
| 7.42 | CC(C)(O)[C@H](NC(=O)c1cnc(C(F)F)cn1)c1nc2cc(F)ccc2n1CC(F)F [Example 83, N-[(1R)-1-[1-(2,2-difluoroethyl)-5-fluoro-1H-1,3-benzodiazol-2-yl]-2-hydroxy-2-methylpropyl]-5-(difluoromethyl)pyrazine-2-carboxamide] |
| 7.59 | Cc1cnc(C(=O)N[C@H](c2nc3cc(F)ccc3n2C(C)C)[C@H]2CCOC2)cn1 [Example 84, N-[(S)-[5-fluoro-1-(propan-2-yl)-1H-1,3-benzodiazol-2-yl][(3R)-oxolan-3-yl]methyl]-5-methylpyrazine-2-carboxamide] |
| 7.32 | CO[C@H](C)[C@H](NC(=O)c1cnc(C)cn1)c1nc2cc(F)c(F)cc2n1C [Example 85, N-[(1R,2R)-1-(5,6-difluoro-1-methyl-1H-1,3-benzodiazol-2-yl)-2-methoxypropyl]-5-methylpyrazine-2-carboxamide] |
| 8.00 | Cc1cnc(C(=O)N[C@@H](CC2CC2)c2nc3cc(Cl)ccc3n2C)cn1 [Example 86, N-[(1S)-1-(5-chloro-1-methyl-1H-1,3-benzodiazol-2-yl)-2-cyclopropylethyl]-5-methylpyrazine-2-carboxamide] |
| 7.92 | COCCn1c([C@@H](NC(=O)c2cnc(C)cn2)[C@H]2CCOC2)nc2cc(C(F)(F)F)ccc21 [Example 87, N-[(S)-[1-(2-methoxyethyl)-5-(trifluoromethyl)-1H-1,3-benzodiazol-2-yl][(3R)-oxolan-3-yl]methyl]-5-methylpyrazine-2-carboxamide] |
| 8.52 | CO[C@H](C)[C@H](NC(=O)c1cnc(C)cn1)c1nc2c(C)c(Br)ccc2n1C [Example 88, N-[(1R,2R)-1-(5-bromo-1,4-dimethyl-1H-1,3-benzodiazol-2-yl)-2-methoxypropyl]-5-methylpyrazine-2-carboxamide] |
| 8.00 | COCCn1c([C@@H](NC(=O)c2cnc(C)cn2)[C@H]2CCCO2)nc2cc(OC(F)(F)F)ccc21 [Example 89, N-[(R)-[1-(2-methoxyethyl)-5-(trifluoromethoxy)-1H-1,3-benzodiazol-2-yl][(2R)-oxolan-2-yl]methyl]-5-methylpyrazine-2-carboxamide] |
| 8.40 | COCCn1c(C(NC(=O)c2cnc(C)cn2)C2CCCO2)nc2cc(OC(F)(F)F)ccc21 (centres unmarked) [Example 89-2] |
